Test results from patent US7183267B2, “β-lactamase inhibitors and methods of use thereof” (priority 2003, dated 2007).
Like-named read-outs stand apart in the source and are kept apart here.

How the values were obtained:
AmpC β-lactamase [1] = molecular target: T1, AmpC β-lactamase (Escherichia coli, UniProt P00811); test: AmpC β-lactamase competitive inhibition assay (nitrocefin hydrolysis); assay type: biochemical
T1 construct: made in house; host or cells: E. coli BL21 (DE3)
Procedure: The gene for AmpC β-lactamase (accession number P00811) was obtained from Escherichia coli K12 strain W3110 (American Type Culture Collection, Rockville Md.). E. coli was grown and plasmid (F-lacIq lacPL8 ampC::lambdacI+) was isolated via Qiagen (Valencia, Calif.) mini prep. The gene for AmpC was amplified in two pieces via polymerase chain reaction, ligated and purified by agarose gel electrophoresis. The ligated gene was inserted into a pET200 vector via a TOPO reaction (Invitrogen, Carlsbad, Calif.).
BL21 (DE3) (Invitrogen) cells were transformed by heat-shock with the prepared plasmid. These cells were grown to an OD600 of 0.8 at 37° C. Isopropylthiogalactoside (IPTG) was added to 1 mM, incubation temperature decreased to 25° C. and the cells were grown for an additional 18 hours. After 18 hours, the E. coli was pelleted by centrifugation, and discarded. The growth media was concentrated and dialyzed versus 100 mM Tris, pH 7.0. This solution was run through an equilibrated Q-resin column, and washed with excess 100 mM Tris, pH 7.0.
(§1) The competitive inhibition of β-lactamase was determined spectrophotometrically using a Varian (Walnut Creek, Calif.) Cary 100 UV-Visible spectrophotometer. β-lactamase activity was followed by measuring the hydrolysis of nitrocefin, [3-(2,4-dinitrostyryl)-(6R, 7R)-7-(2-thienylacetamido)-ceph-3-em-4-carboxylic acid, E-isomer], (Calbiochem, San Diego, Calif.) at 486 nm. Inhibition assays were performed at 25° C. in 50 mM sodium phosphate, 5% DMSO, pH 7.0. […] Penicillin G (Sigma, St. Louis, Mo.) was also used as a substrate to determine KM and kcat.
(§2) Inhibitor was added to protein and incubated for ten minutes before the addition of substrate. Inhibition constants were determined by measuring the loss of P-lactamase activity with increasing inhibitor concentrations and fitting the data to standard equations for competitive inhibition.

TEM-1 β-lactamase [2] = molecular target: T2, TEM-1 β-lactamase (Escherichia coli, UniProt P62593); test: TEM-1 β-lactamase inhibition assay (nitrocefin hydrolysis, 486 nm); assay type: biochemical
Procedure: (§3) The inhibition of TEM-1 β-lactamase was determined spectrophotometrically. B-lactamase activity was followed by measuring the hydrolysis of nitrocefin, [3-(2,4-dinitrostyryl)-(6R, 7R)-7-(2-thienylacetamido)-ceph-3-em-4-carboxylic acid, E-isomer], (Calbiochem, San Diego, Calif., USA) at 486 nm. Inhibition assays were performed at 25° C. in 50 mM sodium phosphate, 5% DMSO, pH 7.0. […] Inhibitor was added to the enzyme and incubated for ten minutes before the addition of substrate. Inhibition constants (Ki) for the inhibitors are obtained at the desired temperature and solvent conditions by measuring the rate of substrate hydrolysis at increasing amounts of inhibitors.
as §1, §2
(§4) These methods can also be used to express and assay recombinant TEM-1 variant of β-lactamase.

AmpC β-lactamase [3] = molecular target: T1, AmpC β-lactamase; conditions: binding to AmpC; ITC
Procedure: (§5) Isothermal titration calorimetry was performed on a high-precision VP-ITC titration calorimeter (Microcal Inc., Northampton, Mass.). β-Lactamase solutions were titrated with inhibitors in 50 mM sodium phosphate, 2% DMSO, pH 7.0, with β-lactamase concentrations ranging from 15 to 25 μM and inhibitor concentrations ranging from 300 to 1000 μM. The heat evolved from each injection was obtained by integrating the calorimetric signal. Heat of binding was obtained as the difference between the heat of reaction and the heat of inhibitor dilution. Data were analyzed using Origin 7.0 (OriginLab Corporation, Northampton, Mass.).
Isothermal titration calorimetry was undertaken to determine the thermodynamic characteristics of binding to AmpC β-lactamase.

β-lactamase mutant E104K = β-lactamase mutant E104K (Escherichia coli, UniProt P62593, E102K); assay type: biochemical; conditions: number higher than 1 reflects a loss of potency against mutant
Procedure: as §3
(§6) Three of the most important mutations are M69I, R244S and E104K.

β-lactamase mutant R244S = β-lactamase mutant R244S (Escherichia coli, UniProt P62593, R241S); assay type: biochemical; conditions: number higher than 1 reflects a loss of potency against mutant
Procedure: as §3, §6

β-lactamase mutant M69I = β-lactamase mutant M69I (Escherichia coli, UniProt P62593, M67I); assay type: biochemical; conditions: number higher than 1 reflects a loss of potency against mutant
Procedure: as §3, §6

TEM-1 β-lactamase [4] = molecular target: T2, TEM-1 β-lactamase; test: Isothermal titration calorimetry, binding to TEM-1 β-lactamase (Example 17); conditions: ITC
Procedure: as §5, §4
Also shown are the results obtained for β-lactamase variant TEM-1.

[5] = Ki, 25° C., 50 mM sodium phosphate, 5% DMSO, pH 7.0, enzyme 5 nM, nitrocefin 167 μM

SMILES	Ki (AmpC β-lactamase [1]) [µM]	Ki (TEM-1 β-lactamase [2]; [5]) [µM]	ΔG (AmpC β-lactamase [3]) [kcal/mol]	ΔH (AmpC β-lactamase [3]) [kcal/mol]	−TΔS (AmpC β-lactamase [3]) [kcal/mol]	Loss of potency: ratio of the inhibitory constant between mutant and wild type (Potencywt/Potencymutant), E104K (β-lactamase mutant E104K)	Loss of potency: ratio of the inhibitory constant between mutant and wild type (Potencywt/Potencymutant), R244S (β-lactamase mutant R244S)	Loss of potency: ratio of the inhibitory constant between mutant and wild type (Potencywt/Potencymutant), M69I (β-lactamase mutant M69I)	ΔG (TEM-1 β-lactamase [4]) [kcal/mol]	ΔH (TEM-1 β-lactamase [4]) [kcal/mol]	−TΔS (TEM-1 β-lactamase [4]) [kcal/mol]	Ki (TEM-1 β-lactamase [2]; Ki, TEM-1 β-lactamase) [µM]	Ki (TEM-1 β-lactamase [2]) [µM]
O=C(OCc1ccccc1)c1cccc(B(O)O)c1 [Compound F1001]	1.79	104	-6.83	-0.644	-6.186	–	–	–	–	–	–	–	–
O=C(Oc1c(Cl)cccc1[N+](=O)[O-])c1ccc(B(O)O)cc1F [(8a), 4-(2-Chloro-6-nitrophenoxycarbonyl)-3-fluorophenylboronic acid]	0.913	43 ± 1.6	-8.19	-8.486	0.296	–	–	–	–	–	–	–	–
O=C(Oc1ccc2sc(=O)oc2c1)c1cc(B(O)O)cc([N+](=O)[O-])c1 [Compound (1f), 3-(2-OxO-benzo[1,3]oxathiol-6-oxycarbonyl)-5-nitrophenylboronic acid]	–	33 ± 4	–	–	–	0.37	0.42	0.47	–	–	–	–	–
CC(C)(C)c1cc(OC(=O)c2cc(B(O)O)cc([N+](=O)[O-])c2)ccc1OC(=O)c1cc(B(O)O)cc([N+](=O)[O-])c1 [Compound (2d)]	6.27	–	-7.098	0	-7.098	–	–	–	-6.513	-0.859	-5.654	10.9	–
O=C(OCc1cccc(B(O)O)c1)c1cc(B(O)O)cc([N+](=O)[O-])c1 [Compound (3d), 3-(3-Boronobenzyloxycarbonyl)-5-nitrophenylboronic acid]	1.03	55.7 ± 4.3	-7.442	-15.637	8.195	–	–	–	–	–	–	–	–
O=C(Oc1cc(OC(=O)c2cc(B(O)O)cc([N+](=O)[O-])c2)cc(OC(=O)c2cc(B(O)O)cc([N+](=O)[O-])c2)c1)c1cc(B(O)O)cc([N+](=O)[O-])c1 [Compound (12a), Tris(3-borono-5-nitrobenzoic acid), 1,3,5-trihydroxybenzene ester]	1.94	–	-7.231	-1.47	-5.761	–	–	–	-6.468	-0.69	-5.778	–	6.9
O=C(Oc1ccc(OC(=O)c2cc(B(O)O)cc([N+](=O)[O-])c2)c(Cl)c1)c1cc(B(O)O)cc([N+](=O)[O-])c1 [Compound (2b), 3-Borono-5-nitrobenzoic acid 2-chloro-1,4-phenylene ester]	2.92	15.2 ± 1.4	-7.736	-0.225	-7.511	–	–	–	-7.864	-0.52	-7.344	15.2	–
O=C(Oc1cccc(B(O)O)c1)c1cc(B(O)O)cc([N+](=O)[O-])c1 [Compound (1v), 3-(3-Boronophenoxycarbonyl)-5-nitrophenylboronic acid]	5.01	32 ± 1.1	-7.221	-10.412	3.191	–	–	–	–	–	–	–	–
O=C(OCc1ccccc1COC(=O)c1cc(B(O)O)cc([N+](=O)[O-])c1)c1cc(B(O)O)cc([N+](=O)[O-])c1 [Compound (10a), 3-Borono-5-nitrobenzoic acid 1,2-benzenedimethanol ester]	0.457	–	-8.59	-4.149	-4.441	–	–	–	-7.183	-0.982	-6.201	9.7	–
CC1(C)[C@H](C(=O)O)N2C(=O)C[C@H]2S1(=O)=O [Sulbactam, sulbactam, reference compound]	–	–	–	–	–	1	93	15	–	–	–	–	–
O=C(Oc1ccc(OC(=O)c2ccc(B(O)O)cc2F)c(Cl)c1)c1ccc(B(O)O)cc1F [Compound (7a), 4-Borono-2-fluorobenzoic acid 2-chloro-1,4-phenylene ester]	0.873	122 ± 10	-7.314	-9.936	2.622	–	–	–	–	–	–	–	–
O=C(Oc1cccc(B(O)O)c1)c1ccc(C(=O)Oc2cccc(B(O)O)c2)cc1 [Compound (11a), 1,4-Benzenedicarboxylic Acid, di 3-boronophenyl ester]	1.31	–	-7.548	-3.114	-4.434	–	–	–	–	–	–	–	–
O=C(Oc1cccc(B(O)O)c1)c1c(Cl)cccc1Cl [Compound (6a), 3-(2,6-Dichlorophenylcarbonyloxy)phenyl boronic acid]	1.53	28 ± 2.1	-7.757	-6.538	-1.219	–	–	–	–	–	–	–	–
C[C@]1(Cn2ccnn2)[C@H](C(=O)O)N2C(=O)C[C@H]2S1(=O)=O [Tazobactam, tazobactam, reference compound]	–	–	–	–	–	1	105	31	–	–	–	–	–
O=C(O)[C@H]1/C(=C/CO)O[C@@H]2CC(=O)N21 [Clavulanic, clavulanic acid, reference compound]	–	–	–	–	–	0.67	38	163	–	–	–	–	–
O=C(Oc1c(Cl)c(Cl)c(OC(=O)c2cc(B(O)O)cc([N+](=O)[O-])c2)c(Cl)c1Cl)c1cc(B(O)O)cc([N+](=O)[O-])c1 [Compound (2c)]	3.68	–	-7.115	-0.473	-6.642	–	–	–	-5.814	-1.648	-4.166	6.7	–
